Results published in ChEMBL document CHEMBL6071128, “Chalcone-Monoterpene Derivatives from the Buds of Cleistocalyx operculatus and Their Potential as Protein Tyrosine Phosphatase 1B Inhibitors” (J Nat Prod, 2024).

Legend:
[1] = biological target: T1, Tyrosine-protein phosphatase non-receptor type 1 (Homo sapiens, UniProt P18031)
T1 sequence (P18031 whole entry): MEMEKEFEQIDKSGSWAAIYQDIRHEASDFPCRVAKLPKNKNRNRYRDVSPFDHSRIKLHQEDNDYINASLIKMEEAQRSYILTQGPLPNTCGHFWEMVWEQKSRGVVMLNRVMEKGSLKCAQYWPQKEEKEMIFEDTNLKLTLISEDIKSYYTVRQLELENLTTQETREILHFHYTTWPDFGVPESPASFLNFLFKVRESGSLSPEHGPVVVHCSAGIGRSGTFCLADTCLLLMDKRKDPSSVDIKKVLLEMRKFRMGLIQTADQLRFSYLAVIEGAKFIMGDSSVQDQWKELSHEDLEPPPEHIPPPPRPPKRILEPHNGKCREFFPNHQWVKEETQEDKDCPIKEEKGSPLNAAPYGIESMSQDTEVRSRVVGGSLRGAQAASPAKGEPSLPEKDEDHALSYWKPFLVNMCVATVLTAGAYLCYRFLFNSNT
Description: Inhibition of human recombinant PTP1B (1 to 322 residues) extracted from Escherichia coli using p-nitrophenyl phosphate as substrate incubated for 30 mins by absorbance based analysis

[2] = biological target: T1, Tyrosine-protein phosphatase non-receptor type 1; remark: listed apart in the source
Description: Binding affinity to human recombinant PTP1B (1 to 322 residues) extracted from Escherichia coli assessed as inhibition constant using p-nitrophenyl phosphate as substrate preincubated for 2 mins followed by substrate addition and measured after 15 mins by absorbance based analysis

IC50 [1] [µM] | Ki [2] [µM] | Compound
3.9 |  | COc1c(C)c(O)c(C=O)c(O)c1C(=O)/C=C/c1ccccc1
1.4 | 3.4 | COc1c(C)c(O)c(C=O)c(O)c1C(=O)[C@@H]1CC(CCC=C(C)C)=CC[C@H]1c1ccccc1
1.1 | 5.9 | COc1c(C)c(O)c(C=O)c(O)c1C(=O)[C@H]1CC(CCC=C(C)C)=CC[C@@H]1c1ccccc1
1.5 | 5.2 | CC1=C2O[C@]34OC(c5ccccc5)CC(O)=C3C(=O)C(C)(C)C(=O)[C@]4(C)CC2=C(O)C(C(=O)/C=C/c2ccccc2)C1=O (some centres not stated)
